SMILES strings stand for the structures.

From patent US12145947B2, “Pyrimidine based modulators and uses thereof” (Quanta Therapeutics, Inc., priority 2022, dated 2024) come the findings set out here.

For test [1], the target named is T1, KRAS G12D/RAF1 (Homo sapiens, UniProt P01116, G12D).
T1 construct: His6-MBP (N, cleaved yes); made in house; host or cells: E. coli
Description: Protein-protein interaction (PPI) HTRF assay KRAS G12D/RAF1. Format: binding. The settings on record: Table 4. The method, then: Biotinylated KRAS wt and KRAS G12DNV proteins were expressed and purified in conditions similar to those previously reported (Tran, et al., 2021) (Zhang, et al., 2020). Briefly, KRAS (1-169) proteins were expressed in E. coli at 18° C. with an upstream TEV cleavage site (ENLFYQS (SEQ ID NO: 6)) followed an Avi tag sequence ([…] (SEQ ID NO: 7)). KRAS expression constructs contained both a His6 (SEQ ID NO: 8) and maltose-binding protein (MBP) tags at the N-terminus for Ni-NTA column purification prior to overnight TEV cleavage and MBP column purification. The avi-tagged NRAS expression construct contained both a His6 tag (SEQ ID NO: 8) and SUMO cleavage sige at the N-terminus for Ni-NTA column purification followed by His-ULPi digestion overnight. All avi-tagged RAS proteins were dialyzed into buffer containing ATP, biotin, and BirA followed by purification over a second Ni-NTA column and then run over a size exclusion HiLoad™ 26/600 Superdex™ column in 20 mM HEPES, pH 7.5, 300 mM NaCl, 5 mM MgCl2, and 1 mM TCEP. Fractions containing the protein of interest were pooled, concentrated, and confirmed by intact mass spectrometry. To prepare ‘GTP’ loaded KRAS and NRAS, biotinylated KRAS or NRAS was nucleotide exchanged from GDP-bound protein to GppNHp-bound (Jena Biosciences, NU-401-50) protein in the presence of alkaline phosphatase and excess GppNHp as previously described and the resulting nucleotide content was confirmed by HPLC reverse phase analytical chromatography (Donohue, et al., 2019) (Tran, et al., 2021).
His-tagged RAF1 (52-131) was similarly expressed in E. coli at 18° C. overnight with an upstream TEV cleavage site. His-tagged RAF1 expression construct contained both a His6 (SEQ ID NO: 8) and MBP tags at the N-terminus for Ni-NTA column purification followed by MBP-tagged TEV digestion overnight. RAF1 protein samples were further purified over a MBP column followed by a Ni-NTA column and a second MBP column. The fractions containing the protein of interest were pooled, concentrated, and further purified over a HiLoad™ 16/600 Superdex™ 75 pg size exclusion column into 20 mM HEPES, pH8.0, 200 mM NaCl, 5 mM TCEP.
When RAS proteins are in the active GTP-bound conformation, they bind the effector protein RAF1 at the N-terminus Ras-binding domain (RBD, residues 52-131) (Tran, et al., 2021). Homogenous time resolved fluorescence (HTRF) was used to monitor the interaction between wt or mutant KRAS and RAF1 or wt NRAS and RAFT. Compounds were assayed in the presence of KRAS G12D/V and RAF1 versus wt KRAS to assess activity against mutant and w.t. KRAS. Similarly, compounds were then assayed in the presence of w.t. NRAS and RAF1 to assess RAS isoform selectivity. In all assay formats, His-tagged RAF1 protein was incubated with the HTRF donor, anti-6His (“6His” disclosed as SEQ ID NO: 8) Tb Cryptate gold (Cisbio 61DB10RDF), and biotinylated RAS proteins were incubated with the HTRF acceptor, streptavidin-d2 (CisBio 610SADLA). The intensity of the fluorescence signal emitted is proportional to binding between the two proteins. The donor solution was prepared by mixing 16 nM His-tagged RAF1 in protein dilution buffer with 1:100 anti-6His (“6His” disclosed as SEQ ID NO: 8) Tb cryptate in PPI-Terbium detection buffer. 16 nM biotinylated RAS protein was diluted into protein dilution buffer (50 mM Tris-HCl pH 7.5, 150 mM NaCl, 0.1 mM MgCl2, 1 mM TCEP, 0.005% Tween20) and mixed with 1:2000 Streptavidin-d2 diluted in PPI-Terbium detection buffer (CisBio 61DBTORDF). 50× compound in DMSO was mixed with 16 nM KRAS-acceptor solution and incubated for 30 minutes at room temperature. After compound pre-incubation with KRAS, the RAF1 donor solution was added to the KRAS-acceptor solution and incubated for 1 hour at room temperature. The fluorescence signal emitted was monitored at 665 nm and 615 nm using an Envision multimode plate reader. […]
(In TR-FRET formats the signal depends on donor and acceptor labels being close together.)

Test [2] concerns the target T2, GST-tagged KRAS-G12D (2-169) (Homo sapiens, UniProt P01116, G12D).
T2 construct: GST-tagged KRAS-G12D (2-169, Reaction Biology, MSC-11-539); purchased Reaction Biology MSC-11-539 (KRAS G12D); MSC-11-502 (SOS1cat)
Briefly: Nucleotide exchange assay (NEA), SOS-mediated, HTRF, KRAS G12D. Type of test: biochemical. The conditions noted are these: Table 4; IC50 extracted at 30 min. The text has this:
This activity is tightly regulated by GTPase activating proteins (GAPs) and guanine nucleotide exchange factors (GEFs). GEFs, such as SOS1/2, activate Ras proteins by exchanging GDP for GTP, thus returning Ras to its active conformation (Simanshu, Nissley, & McCormick, 2017). […] Homogenous time resolved fluorescence (HTRF) was used to detect SOS-mediated binding of a fluorescent GTP analog, GTP-DY-647P1 (Jena Biosciences NU-820-647P1) to GST-tagged KRAS-G12D (2-169, Reaction Biology, MSC-11-539) or to GST-tagged KRAS-G12V (2-169, Reaction Biology, MSC-11-540).
GST-tagged KRAS-G12D (2-169) and anti-GST MAb Tb Cryptate Gold (CisBio 61GSTTLB) were diluted into assay buffer (20 mM HEPES, pH 7.3, 150 mM NaCl, 5 mM MgCl2, 0.05% BSA 0.0025% NP40, 1 mM DTT) to prepare a 2.5× donor solution. 5× compound was added to the protein mixture and incubated for 1 h at RT. 2.5× acceptor solution containing SOSIcat (564-1049, Reaction Biology MSC-11-502) and GTP-DY-647P1 were then added to the donor KRAS mixture such that the final concentration of the reaction contained 5 nM GST-tagged KRAS-G12D (2-169), 20 nM SOScat, and 150 nM GTP. The reaction was monitored using at RT with the Envision multimode plate reader (Ex/Em 337/665, […]) up to 90 minutes at 5 minute intervals. To monitor KRAS-G12V Sos-mediated nucleotide exchange, 80 nM SOS was added to reaction instead of 20 nM. All other components were the same as previously described. Data was blanked to reactions without SOS1 and % inhibition was calculated such that DMSO only=0% and blank=100%. Curve fitting was done using a 4 parameter fit. Reported IC50 values were extracted at 30 min and 90 min for the KRAS-G12D and KRAS-G12V assays, respectively.
Curve fitting was done using a 4 parameter fit. NEA KRAS G12D IC50 (uM) values of selected compounds are depicted in Table 2 with compounds having a value <0.01 uM as ++++; >0.01 uM to 0.1 uM as +++; >0.1 uM to 1 uM as ++; >1 uM to 20 uM as +; and >20 uM as NA.

T2 sequence (P01116 2-169 isoform P01116-2 G12D): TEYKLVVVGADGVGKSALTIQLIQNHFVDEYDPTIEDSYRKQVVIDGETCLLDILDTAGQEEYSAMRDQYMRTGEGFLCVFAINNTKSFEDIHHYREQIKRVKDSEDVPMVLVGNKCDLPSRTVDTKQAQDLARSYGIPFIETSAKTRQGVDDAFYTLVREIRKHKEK
T1 sequence (P01116 with tags, fused parts or gaps isoform P01116-2 G12D): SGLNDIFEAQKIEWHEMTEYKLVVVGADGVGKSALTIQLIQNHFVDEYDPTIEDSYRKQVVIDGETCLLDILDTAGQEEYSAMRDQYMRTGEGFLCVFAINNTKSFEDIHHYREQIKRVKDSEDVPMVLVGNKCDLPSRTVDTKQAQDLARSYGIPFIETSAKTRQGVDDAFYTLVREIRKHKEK

One may read the IC50 as the concentration that inhibits the measured activity by half. Low values mean greater potency in that assay, high ones weaker potency in that assay. Turning to `CN(C)C(=O)c1nn2c(c1Cl)CN(c1nc(OC[C@@]34CCCN3C[C@H](F)C4)nc(N3CC4(C3)C(=O)CCc3ccccc34)c1C#N)CCC2` [Compound 36, 3-chloro-5-[5-cyano-2-[[(2R,8S)-2-fluoro-1,2,3,5,6,7-hexahydropyrrolizin-8-yl]methoxy]-6-(2′-oxospiro[azetidine-3,1′-tetralin]-1-yl)pyrimidin-4-yl]-N,N-dimethyl-4,6,7,8-tetrahydropyrazolo[1,5-a][1,4]diazepine-2-carboxamide], the results for the half-inhibitory concentration (IC50) in test [1] and in test [2] were > 100 µM and 1 to 20 µM, respectively.
Consider `CN(C)C(=O)c1nn2c(c1Cl)CN(c1nc(OC[C@@]34CCCN3C[C@H](F)C4)nc(N3CC4(C3)C(=O)Cc3ccccc34)c1C#N)CCC2` [Compound 37, 3-chloro-5-[5-cyano-2-[[(2R,8S)-2-fluoro-1,2,3,5,6,7-hexahydropyrrolizin-8-yl]methoxy]-6-(2′-oxospiro[azetidine-3,1′-indane]-1-yl)pyrimidin-4-yl]-N,N-dimethyl-4,6,7,8-tetrahydropyrazolo[1,5-a][1,4]diazepine-2-carboxamide], for which the 50% inhibitory concentration (IC50) is > 100 µM in test [1] and > 20 µM in test [2].
The matching figures for `N#Cc1c(N2CCC(O)C(O)CC2)nc(OC[C@@]23CCCN2C[C@H](F)C3)nc1N1CC2(CCc3sc(N)c(C#N)c32)C1` (stereo partly drawn) [Compound 38, 2-amino-1′-[5-cyano-6-(4,5-dihydroxyazepan-1-yl)-2-[[(2R,8S)-2-fluoro-1,2,3,5,6,7-hexahydropyrrolizin-8-yl]methoxy]pyrimidin-4-yl]spiro[5,6-dihydrocyclopenta[b]thiophene-4,3′-azetidine]-3-carbonitrile]: 1 to 10 µM and 0.01 to 0.1 µM.
The like results for `N#Cc1c(N2C[C@H]3CC[C@@H](C2)N3)nc(OCC2(CN3CCOCC3)CC2)nc1N1CC2(CCc3sc4[nH]cnc(=O)c4c32)C1` [Compound 39, 2-[[1-(morpholinomethyl)cyclopropyl]methoxy]-4-(12-oxospiro[7-thia-9,11-diazatricyclo[6.4.0.02,6]dodeca-1(8), 2(6), 10-triene-3,3′-azetidine]-1′-yl)-6-[(1R,5S)-3,8-diazabicyclo[3.2.1]octan-3-yl]pyrimidine-5-carbonitrile] were, in that order, > 100 µM and 0.1 to 1 µM.
Turning to `CN(C)C(=O)c1nn2c(c1Cl)CN(c1nc(OC[C@@]34CCCN3C[C@H](F)C4)nc(N3CC4(CCc5sc6[nH]cnc(=O)c6c54)C3)c1C#N)CCC2` [Compound 44, 3-chloro-5-[5-cyano-2-[[(2R,8S)-2-fluoro-1,2,3,5,6,7-hexahydropyrrolizin-8-yl]methoxy]-6-(12-oxospiro[7-thia-9,11-diazatricyclo[6.4.0.02,6]dodeca-1(8), 2(6), 10-triene-3,3′-azetidine]-1′-yl)pyrimidin-4-yl]-N,N-dimethyl-4,6,7,8-tetrahydropyrazolo[1,5-a][1,4]diazepine-2-carboxamide], the concentration for half-maximal inhibition (IC50) was > 100 µM in test [1] and 1 to 20 µM in test [2].
The matching figures for `N#Cc1c(N2C[C@H]3CC[C@@H](C2)N3)nc(OCC2(CN3CCOCC3)CC2)nc1N1CC2(C1)C(=O)CCc1ccccc12` [Compound 50, 4-[(1R,5S)-3,8-diazabicyclo[3.2.1]octan-3-yl]-2-[[1-(morpholinomethyl)cyclopropyl]methoxy]-6-(2′-oxospiro[azetidine-3,1′-tetralin]-1-yl)pyrimidine-5-carbonitrile]: > 100 µM and 1 to 20 µM.
The matching figures for `N#Cc1c(N)sc2c1C1(CC2)CN(c2nc(OC[C@@]34CCCN3C[C@H](F)C4)nc(N3CCCC(C#N)CC3)c2F)C1` (stereo partly drawn) [Compound 51, 2-amino-1′-[6-(4-cyanoazepan-1-yl)-5-fluoro-2-[[(2R,8S)-2-fluoro-1,2,3,5,6,7-hexahydropyrrolizin-8-yl]methoxy]pyrimidin-4-yl]spiro[5,6-dihydrocyclopenta[b]thiophene-4,3′-azetidine]-3-carbonitrile]: 1 to 10 µM and 0.01 to 0.1 µM.
Regarding `N#Cc1c(N2C[C@H]3CC[C@@H](C2)N3)nc(OCC2(CN3CCOCC3)CC2)nc1N1CC2(C1)c1ccccc1CCC2O` (stereo partly drawn) [Compound 53, 4-[(1R,5S)-3,8-diazabicyclo[3.2.1]octan-3-yl]-6-(2′-hydroxyspiro[azetidine-3,1′-tetralin]-1-yl)-2-[[1-(morpholinomethyl)cyclopropyl]methoxy]pyrimidine-5-carbonitrile], the figures for the IC50 in test [1] and in test [2] were > 100 µM and 0.1 to 1 µM, respectively.
The matching figures for `N#CNC1CCCN(c2nc(OC[C@@]34CCCN3C[C@H](F)C4)nc(N3CC4(CCc5sc(N)c(C#N)c54)C3)c2F)C1` (stereo partly drawn) [Compound 54, [1-[6-(2-amino-3-cyano-spiro[5,6-dihydrocyclopenta[b]thiophene-4,3′-azetidine]-1′-yl)-5-fluoro-2-[[(2R,8S)-2-fluoro-1,2,3,5,6,7-hexahydropyrrolizin-8-yl]methoxy]pyrimidin-4-yl]-3-piperidyl]cyanamide]: 0.1 to 1 µM and 0.1 to 1 µM.
